Experiments:
GST-Bc1-2 = GST-Bc1-2 (Homo sapiens, UniProt P10415); experiment: Time Resolved-Fluorescence Resonance Energy Transfer (TR-FRET) Bcl-2 binding assay with F-Bak peptide probe; details: GST-Bcl-2 1 nM, F-Bak probe 100 nM, Tb-anti-GST 1 nM; '<' = below limit of detection; read-out: TR-FRET Bcl-2 Binding Ki
RS4;11 cells = experiment: RS4;11 Cell Viability Assay (CellTiter Glo); assay type: cell-based; details: Homo sapiens, RS4-11, 48 h, 50,000 cells per well, 10% human serum;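 further: RS4,11 acute lymphoblastic leukemia cells, viability as percent of untreated control cells, EC50 for loss of viable cells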
Protocol: The acute lymphoblastic leukemia (ALL) cell line RS4;11 was used as the primary human cell line to assess the cellular activity of Bcl-2 selective agents in vitro and their efficacy in vivo.
Cell cytotoxicity EC50 values were assessed using CellTiter Glo (Promega) according to the manufacturer's recommendations. The EC50 values were determined as a percentage of viable cells following treatment compared to the untreated control cells.

GST-Bc1-2, sequence (P10415 whole entry): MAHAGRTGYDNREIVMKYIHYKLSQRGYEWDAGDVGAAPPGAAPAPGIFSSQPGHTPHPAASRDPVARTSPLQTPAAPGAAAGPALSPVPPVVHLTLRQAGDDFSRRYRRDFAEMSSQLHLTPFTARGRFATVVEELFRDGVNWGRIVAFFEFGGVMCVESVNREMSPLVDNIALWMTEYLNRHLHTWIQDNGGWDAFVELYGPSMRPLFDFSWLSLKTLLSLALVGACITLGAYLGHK

## CC1(C)CCC(CN2CCN(c3ccc(C(=O)NS(=O)(=O)c4ccc(NC(=O)N5CCC(C#N)CC5)c([N+](=O)[O-])c4)c(Oc4cnc5[nH]ccc5c4)c3)CC2)=C(c2ccc(Cl)cc2)C1 [Example 381, N-(4-{[4-(4-{[2-(4-chlorophenyl)-4,4-dimethylcyclohex-1-en-1-yl]methyl}piperazin-1-yl)-2-(1H-pyrrolo[2,3-b]pyridin-5-yloxy)benzoyl]sulfamoyl}-2-nitrophenyl)-4-cyanopiperidine-1-carboxamide]
GST-Bc1-2
  Ki: < 0.01 nM
RS4;11 cells
  EC50: 1.41 nM

## COC[C@H]1CC[C@@H](CNc2ccc(S(=O)(=O)NC(=O)c3ccc(N4CCN(CC5=C(c6ccc(Cl)cc6)CC(C)(C)CC5)CC4)cc3Oc3cnc4[nH]ccc4c3)cc2[N+](=O)[O-])CC1 [Example 382, 4-(4-{[2-(4-chlorophenyl)-4,4-dimethylcyclohex-1-en-1-yl]methyl}piperazin-1-yl)-N-{[4-({[cis-4-(methoxymethyl)cyclohexyl]methyl}amino)-3-nitrophenyl]sulfonyl}-2-(1H-pyrrolo[2,3-b]pyridin-5-yloxy)benzamide]
GST-Bc1-2
  Ki: < 0.01 nM
RS4;11 cells
  EC50: 27 nM

## COC[C@H]1CC[C@H](CNc2ccc(S(=O)(=O)NC(=O)c3ccc(N4CCN(CC5=C(c6ccc(Cl)cc6)CC(C)(C)CC5)CC4)cc3Oc3cnc4[nH]ccc4c3)cc2[N+](=O)[O-])CC1 [Example 383, 4-(4-{[2-(4-chlorophenyl)-4,4-dimethylcyclohex-1-en-1-yl]methyl}piperazin-1-yl)-N-{[4-({[trans-4-(methoxymethyl)cyclohexyl]methyl}amino)-3-nitrophenyl]sulfonyl}-2-(1H-pyrrolo[2,3-b]pyridin-5-yloxy)benzamide]
GST-Bc1-2
  Ki: < 0.01 nM
RS4;11 cells
  EC50: 12.4 nM

## CC1(C)CCC(CN2CCN(c3ccc(C(=O)NS(=O)(=O)c4ccc5c(c4)nnn5CC4CCOCC4)c(Oc4cnc5[nH]ccc5c4)c3)CC2)=C(c2ccc(Cl)cc2)C1 [Example 384, 4-(4-{[2-(4-chlorophenyl)-4,4-dimethylcyclohex-1-en-1-yl]methyl}piperazin-1-yl)-2-(1H-pyrrolo[2,3-b]pyridin-5-yloxy)-N-{[1-(tetrahydro-2H-pyran-4-ylmethyl)-1H-benzotriazol-5-yl]sulfonyl}benzamide]
GST-Bc1-2
  Ki: 0.704 nM
RS4;11 cells
  EC50: > 1000 nM

## CC1(C)CCC(CN2CCN(c3ccc(C(=O)NS(=O)(=O)c4cnc(OCC5CCC6(CC5)CNC(=O)O6)c(Cl)c4)c(Oc4cnc5[nH]ccc5c4)c3)CC2)=C(c2ccc(Cl)cc2)C1 (stereo not shown) [Example 385, N-({5-chloro-6-[(2-oxo-1-oxa-3-azaspiro[4.5]dec-8-yl)methoxy]pyridin-3-yl}sulfonyl)-4-(4-{[2-(4-chlorophenyl)-4,4-dimethylcyclohex-1-en-1-yl]methyl}piperazin-1-yl)-2-(1H-pyrrolo[2,3-b]pyridin-5-yloxy)benzamide]
GST-Bc1-2
  Ki: < 0.01 nM
RS4;11 cells
  EC50: 133 nM

## COC1CCN(C(=O)Nc2ccc(S(=O)(=O)NC(=O)c3ccc(N4CCN(CC5=C(c6ccc(Cl)cc6)CC(C)(C)CC5)CC4)cc3Oc3cnc4[nH]ccc4c3)cc2[N+](=O)[O-])CC1 [Example 386, N-(4-{[4-(4-{[2-(4-chlorophenyl)-4,4-dimethylcyclohex-1-en-1-yl]methyl}piperazin-1-yl)-2-(1H-pyrrolo[2,3-b]pyridin-5-yloxy)benzoyl]sulfamoyl}-2-nitrophenyl)-4-methoxypiperidine-1-carboxamide]
GST-Bc1-2
  Ki: < 0.01 nM
RS4;11 cells
  EC50: 8.38 nM

## Cc1nc2c(s1)CC(COc1ncc(S(=O)(=O)NC(=O)c3ccc(N4CCN(CC5=C(c6ccc(Cl)cc6)CC(C)(C)CC5)CC4)cc3Oc3cnc4[nH]ccc4c3)cc1Cl)CC2 (stereo not shown) [Example 387]
GST-Bc1-2
  Ki: < 0.01 nM
RS4;11 cells
  EC50: 911 nM

## CC1(C)CCC(CN2CCN(c3ccc(C(=O)NS(=O)(=O)c4cnc5c(ccn5CC5CCOCC5)c4)c(Oc4cnc5[nH]ccc5c4)c3)CC2)=C(c2ccc(Cl)cc2)C1 [Example 388, 4-(4-{[2-(4-chlorophenyl)-4,4-dimethylcyclohex-1-en-1-yl]methyl}piperazin-1-yl)-2-(1H-pyrrolo[2,3-b]pyridin-5-yloxy)-N-{[1-(tetrahydro-2H-pyran-4-ylmethyl)-1H-pyrrolo[2,3-b]pyridin-5-yl]sulfonyl}benzamide]
GST-Bc1-2
  Ki: 0.812 nM
RS4;11 cells
  EC50: > 1000 nM

From patent US8580794B2 (AbbVie Inc., priority 2009, dated 2013)
